# From PubChem BioAssay AID504625 (Southern Research Specialized Biocontainment Screening …, 2011)
# System: human PBMC, HIV-1 X4 replication, supernatant RT activity
# Test: inhibitors of X4-tropic HIV-1 replication in PBMC, dose response, cell-based, human PBMC, set 3 (AID 504625)
compound,measurement,value
Cc1c2c(=O)n(-c3nc4ccccc4s3)nc-2cc(O)n1Cc1ccccc1,IC50,1.51 µM
